What all share (type): physicochemical
Data set [1] in a line: Comparative homogeneity test in vegetable oil. The conditions noted are these: added to 1 kg of vegetable oil, mixed for 5 minutes, continuous visual inspection. The protocol: Comparative homogeneity test of structured particulate Folic Acid with non-structured active particulate component: 1. 10 milligrams of non-structured active particulate component Folic Acid is added to 1 kg of vegetable oil and 40 milligrams of structured particulate Folic Acid (25%) to another 1 kg of vegetable oil. 2. Each sample is mixed for 5 minutes with continuous visual inspection for homogeneity.

Data set [2] in a line: Mean weight diameter by screen analysis. To be noted: weight fraction at screen multiplied by screen opening, summed for all screen sizes. The protocol:
Folic acid is used as the active component It has a mean weight diameter of 246 microns and a loose bulk density of 0.2 g/cc. The mean weight diameters is calculated as follows: weight fraction at screen multiplied by screen opening (microns), summed for all screen sizes.

Another data set in a line: Loose bulk density. The text has this:
Loose bulk density being measured by measuring the volume of a known mass powder sample, that has passed through a screen into a gradulated cylinder. The procedure is described in USP<616<Bulk Density and Tapped Density.

Each structure is given as a SMILES string.

With `Nc1nc2ncc(CNc3ccc(C(=O)N[C@@H](CCC(=O)O)C(=O)O)cc3)nc2c(=O)[nH]1` [Folic acid], the “homogeneity / dispersion by visual inspection” value in data set [1] was “clumps together and sticks to the container walls”. Besides, the mean weight diameter in data set [2] is recorded as 246 microns. In “Loose bulk density”, the loose bulk density came to 0.2 g/cc.

The values are drawn from US6773733B2, “Structured particulate systems” (Loders Croklaan USA LLC, priority 2001, dated 2004).
